The NIST ThermoML archive (doi:10.1016/j.jct.2004.11.001)

Details: Liquid; for speed of sound: non intrusive technique with two piezoelectric transducers based on the time of flight

[2H]C([2H])([2H])C(=O)C([2H])([2H])[2H] [(D6)-2-propanone]
Details | mass density [kg/m3] | speed of sound [m/s]
313.21 K, 59100 kPa | 906.07 | –
318.11 K, 100 kPa | 842.15 | –
318.11 K, 5000 kPa | 848.68 | –
318.11 K, 9920 kPa | 854.81 | –
318.11 K, 14840 kPa | 860.56 | –
318.11 K, 19760 kPa | 865.99 | –
318.11 K, 24670 kPa | 871.14 | –
318.11 K, 29590 kPa | 876.06 | –
318.11 K, 34510 kPa | 880.71 | –
318.11 K, 39430 kPa | 885.18 | –
318.11 K, 44340 kPa | 889.44 | –
318.11 K, 49260 kPa | 893.55 | –
318.11 K, 54180 kPa | 897.49 | –
318.11 K, 59100 kPa | 901.28 | –
318.22 K, 100 kPa | – | 991.2
318.22 K, 4980 kPa | – | 1022.9
318.22 K, 10070 kPa | – | 1053.8
318.22 K, 19990 kPa | – | 1109.8
318.22 K, 30040 kPa | – | 1161.1
318.22 K, 40070 kPa | – | 1207.9
318.22 K, 50060 kPa | – | 1250.3
318.22 K, 60010 kPa | – | 1289.3
318.22 K, 70120 kPa | – | 1326.3
318.22 K, 80030 kPa | – | 1360.3
318.22 K, 90090 kPa | – | 1393
318.22 K, 100300 kPa | – | 1424.8
318.22 K, 110120 kPa | – | 1453.2
318.22 K, 120030 kPa | – | 1481
318.22 K, 129970 kPa | – | 1507.9
318.22 K, 140110 kPa | – | 1534.2
318.22 K, 150060 kPa | – | 1558.7
318.22 K, 160060 kPa | – | 1582.6
323.12 K, 100 kPa | 835.37 | –
323.12 K, 5000 kPa | 842.13 | –
323.12 K, 9920 kPa | 848.49 | –
323.12 K, 14840 kPa | 854.44 | –
323.12 K, 19760 kPa | 860.07 | –
323.12 K, 24670 kPa | 865.35 | –
323.12 K, 29590 kPa | 870.38 | –
323.12 K, 34510 kPa | 875.18 | –
323.12 K, 39430 kPa | 879.78 | –
323.12 K, 44340 kPa | 884.16 | –
323.12 K, 49260 kPa | 888.38 | –
323.12 K, 54180 kPa | 892.45 | –
323.12 K, 59100 kPa | 896.36 | –
328 K, 100 kPa | 828.68 | –
328 K, 5000 kPa | 835.72 | –
328 K, 9920 kPa | 842.33 | –
328 K, 14840 kPa | 848.48 | –
328 K, 19760 kPa | 854.24 | –
328 K, 24670 kPa | 859.71 | –
328 K, 29590 kPa | 864.88 | –
328 K, 34510 kPa | 869.82 | –
328 K, 39430 kPa | 874.55 | –
328 K, 44340 kPa | 879.05 | –
328 K, 49260 kPa | 883.39 | –
328 K, 54180 kPa | 887.57 | –
328 K, 59100 kPa | 891.6 | –
328.68 K, 100 kPa | – | 941.9
328.68 K, 5090 kPa | – | 977.6
328.68 K, 10030 kPa | – | 1009.5
328.68 K, 20070 kPa | – | 1068.8
328.68 K, 30010 kPa | – | 1121.9
328.68 K, 40010 kPa | – | 1171.1
328.68 K, 50070 kPa | – | 1215.9
328.68 K, 60000 kPa | – | 1256.7
328.68 K, 70030 kPa | – | 1294.8
328.68 K, 80090 kPa | – | 1330.4
328.68 K, 90100 kPa | – | 1364
328.68 K, 100060 kPa | – | 1396.1
328.68 K, 110140 kPa | – | 1426.4
328.68 K, 120100 kPa | – | 1454.7
328.68 K, 130000 kPa | – | 1481.9
328.68 K, 140020 kPa | – | 1508.4
328.68 K, 150040 kPa | – | 1533.8
328.68 K, 160100 kPa | – | 1557.9
332.91 K, 5000 kPa | 829.26 | –
332.91 K, 9920 kPa | 836.08 | –
332.91 K, 14840 kPa | 842.42 | –
332.91 K, 19760 kPa | 848.36 | –
332.91 K, 24670 kPa | 853.96 | –
332.91 K, 29590 kPa | 859.28 | –
332.91 K, 34510 kPa | 864.37 | –
332.91 K, 39430 kPa | 869.21 | –
332.91 K, 44340 kPa | 873.86 | –
332.91 K, 49260 kPa | 878.33 | –
332.91 K, 54180 kPa | 882.64 | –
332.91 K, 59100 kPa | 886.8 | –
338.72 K, 100 kPa | – | 888.6
338.72 K, 5050 kPa | – | 927.2
338.72 K, 10020 kPa | – | 962.5
338.72 K, 20030 kPa | – | 1025.1
338.72 K, 30050 kPa | – | 1081.4
338.72 K, 40010 kPa | – | 1132.6
338.72 K, 49990 kPa | – | 1179.8
338.72 K, 60050 kPa | – | 1223.2
338.72 K, 70040 kPa | – | 1262.8
338.72 K, 79970 kPa | – | 1299.3
338.72 K, 90070 kPa | – | 1334.7
338.72 K, 100040 kPa | – | 1367.5
338.72 K, 110020 kPa | – | 1398.5
338.72 K, 119960 kPa | – | 1428.5
338.72 K, 130000 kPa | – | 1456.6
338.72 K, 140080 kPa | – | 1484.3
338.72 K, 150050 kPa | – | 1510.5
338.72 K, 159910 kPa | – | 1535.5
